Measured values published in paper PMC12627007, “HIV nucleocapsid proteins as targets for novel 1,2-benzisothiazol-3(2H)-one benzenesulfonamides: synthesis and antiretroviral activity” (Frontiers in Microbiology, 2025).
Read-outs that look alike come from different tables or passages of the source.

Tests used:
[1] = Cytotoxicity in mock-infected MT-4 cells (MTT method); type: cell-based; conditions: human
Experimental: The activity of the test compounds against the replication of HIV-1 wt and mutant strains (N119, A17, EFV^R, AZT^R, MDR, SAQ^R) and HIV-2 wt in acutely infected cells was based on the inhibition of virus-induced cytopathogenicity in MT-4 and C8166 cells, respectively. Briefly, 50 μL of culture medium containing 1 × 10^4 cells was added to each well of flat-bottom microtitre trays containing 50 μL of culture medium with or without different serial concentrations of test compounds. Then, 20 μL of an HIV suspension (containing the appropriate amount of CCID50 required to cause complete cytopathogenicity on day 4, final multiplicity of infection [m.o.i.] 0.01) was added. After incubation at 37 °C, cell viability was determined using the […] (MTT) method ([Pauwels et al., 1988]). The cytotoxicity of the test compounds was evaluated in parallel with their antiviral activity through the viability of mock-infected, treated cells, as monitored by the MTT method and described elsewhere ([Morellet et al., 1994]).

[2] = microbe, parasite or virus in culture; type: cell-based, HIV-1; conditions: all tested strains (HIV-1 wt, mutants, HIV-2)
Experimental: (§1) HIV-1IIIB and HIV-2 CBL-20 strains were obtained from the supernatants of persistently infected H9/IIIB and CEM cells, respectively. HIV-1 and HIV-2 stock solutions had titres of 4.5 × 10^7 and 1.4 × 10^6 50% cell culture infectious doses (CCID50)/ml, respectively. […] The K103R + V179D + P225H mutant (EFVR) was derived from an IIIB strain passaged in MT-4 cells in the presence of Efavirenz (up to 2 μM). N119, A17 and EFV^R stock solutions had titres of 1.2 × 10^8, 2.1 × 10^7, and 4.0 × 10^7 CCID50/ml, respectively.
(§2) The activity of the test compounds against the replication of HIV-1 wt and mutant strains (N119, A17, EFV^R, AZT^R, MDR, SAQ^R) and HIV-2 wt in acutely infected cells was based on the inhibition of virus-induced cytopathogenicity in MT-4 and C8166 cells, respectively. Briefly, 50 μL of culture medium containing 1 × 10^4 cells was added to each well of flat-bottom microtitre trays containing 50 μL of culture medium with or without different serial concentrations of test compounds. Then, 20 μL of an HIV suspension (containing the appropriate amount of CCID50 required to cause complete cytopathogenicity on day 4, final multiplicity of infection [m.o.i.] 0.01) was added.

HIV-1 IIIB strain = experiment: microbe, parasite or virus in culture; type: cell-based; conditions: for EC50: Human immunodeficiency virus 1, IIIB; for Selectivity Index (SI = CC50/EC50) HIV-1: IIIB strain, in round brackets
Experimental: as §1, §2

HIV-1 N119 (Y181C) = experiment: Inhibition of virus-induced cytopathogenicity in MT-4 cells, NNRTI-resistant mutant N119; type: cell-based; conditions: for EC50: Human immunodeficiency virus 1, MT4, read-out: EC50 N119; for Selectivity Index (SI = CC50/EC50) N119: in round brackets
Experimental: as §1, §2

[3] = tested on: HIV-1 A17 (K103N + Y181C); experiment: Inhibition of virus-induced cytopathogenicity in MT-4 cells, NNRTI-resistant mutant A17; type: cell-based; conditions: for EC50: Human immunodeficiency virus 1, MT4, read-out: EC50 A17; for Selectivity Index (SI = CC50/EC50) A17: in round brackets
Experimental: as §1, §2

[4] = tested on: HIV-1 EFVR (K103R + V179D + P225H); experiment: Inhibition of virus-induced cytopathogenicity in MT-4 cells, NNRTI-resistant mutant EFVR; type: cell-based; conditions: for EC50: Human immunodeficiency virus 1, MT4, read-out: EC50 EFVR; for Selectivity Index (SI = CC50/EC50) EFVR: in round brackets
Experimental: as §1, §2

[5] = tested on: HIV-1 AZTR (67N, 70R, 215F, 219Q); experiment: Inhibition of virus-induced cytopathogenicity in MT-4 cells, NRTI-resistant mutant AZTR; type: cell-based; conditions: for EC50: Human immunodeficiency virus 1, MT4, read-out: EC50 AZTR; for Selectivity Index (SI = CC50/EC50) AZTR: in round brackets
Experimental: as §1, §2

[6] = tested on: HIV-1 MDR (74V, 41L, 106A, 215Y); experiment: Inhibition of virus-induced cytopathogenicity in MT-4 cells, NRTI-resistant mutant MDR; type: cell-based; conditions: for EC50: Human immunodeficiency virus 1, MT4, read-out: EC50 MDR; for Selectivity Index (SI = CC50/EC50) MDR: in round brackets
Experimental: as §1, §2

[7] = tested on: HIV-1 SAQR (L10F, G48V, L90M); experiment: Inhibition of virus-induced cytopathogenicity in MT-4 cells, PRI-resistant mutant SAQR; type: cell-based; conditions: for EC50: Human immunodeficiency virus 1, MT4, read-out: EC50 SAQR; for Selectivity Index (SI = CC50/EC50) SAQR: in round brackets
Experimental: as §1, §2

HIV-2 CBL-20 strain = experiment: Inhibition of HIV-2-induced cytopathogenicity in C8166 cells (MTT); type: cell-based; conditions: for Selectivity Index (SI = CC50/EC50) HIV-2: in round brackets
Experimental: as §1, §2

[8] = target: T1, HIV-1 reverse transcriptase (Human immunodeficiency virus type 1 group M subtype B, UniProt P04585); experiment: Reverse transcriptase enzyme assay; type: biochemical; conditions: for Inhibition of recombinant HIV-1 RT: at concentrations of 30 μM
T1 construct: recombinant HIV-1 reverse transcriptase

[9] = target: T2, HIV-1 recombinant integrase (rIN) (Human immunodeficiency virus type 1 group M subtype B, UniProt P04585); experiment: Integrase (rIN) enzyme assays: 3'-processing and strand transfer; type: biochemical; conditions: for Inhibition of recombinant HIV-1 IN: at concentrations of 30 μM
T2 construct: HIV-1 recombinant integrase (rIN); made in house
Text: ^aCompound concentration (µM) required to reduce the amount of 3’-end-labeled duplex of 21/19mers substrates, in 3’-processing and strand-transfer reactions catalyzed by the recombinant HIV-1 integrase, by 50%. Data represent mean values for three independent determinations.

HIV-1 wt = experiment: Time of addition assay in MT-4 cells; type: cell-based; conditions: compound 6 15 μM, EFV 0.05 μM; MT-4, m.o.i. 5
Experimental: 2 × 10^4 MT-4 cells were infected for 1 h at 20 °C with HIV-1 at a high multiplicity of infection (m.o.i. = 5), corresponding to 5 cell culture infectious dose 50 per cell (CCID50/cell).
Titration was performed in C8166 cells using the standard limiting dilution method (dilution 1:2, four replica wells/dilution) in 96-well plates.
Virus yields were determined using the Reed–Muench method. Bars are mean values, and whiskers are standard deviations (SD) of three independent experiments.

[10] = tested on: chronically HIV-1-infected H9 cells / uninfected C8166 cells; experiment: Syncytium formation in chronically infected H9/C8166 cocultures (entry assay); type: cell-based; conditions: 0.5 μM, 36 h
Experimental: Chronically infected H9 cells were washed and cocultured with uninfected C8166 cells (ratio 1:500) in the absence or presence of test inhibitors. Following 36 h of incubation at 37 °C, cocultures were monitored by optical microscopy, syncytia were counted, and those found in drug-treated cocultures were reported as a percentage of those counted in untreated cocultures ([Wang et al., 2004]).
In this assay, syncytia were formed as a result of the interaction of env-encoded glycoproteins (present on the outer membrane of chronically infected H9 cells) with the CD4 of cocultured C8166 cells.
Figure 3 Comparative activity of compound 6 (30 μM) and dextran sulphate (0.5 μM) in preventing syncytium formation in chronically infected H9/C8166 cocultures. The H9/C8166 ratio was […]. The cells were incubated for 36 h at 37 °C. Data represent mean values of at least three independent determinations of syncytial numbers using an optical microscope. Bars are mean values, and whiskers are standard deviations (SD) of at least three independent experiments.

[11] = Human immunodeficiency virus 2, C8166, read-out: EC50 HIV-2
[12] = read-out: IC50 Strand-transfer, recombinant HIV-1 integrase

Row | Compound | CC50 at 4 days [1] [µM] | Selectivity Index (SI) against all tested strains [2] | EC50 (HIV-1 IIIB strain; MT4, read-out: EC50 HIV-1) [µM] | Selectivity Index (SI = CC50/EC50) HIV-1 (HIV-1 IIIB strain) | EC50 (HIV-1 N119 (Y181C)) [µM] | Selectivity Index (SI = CC50/EC50) N119 (HIV-1 N119 (Y181C)) | EC50 [3] [µM] | Selectivity Index (SI = CC50/EC50) A17 [3] | EC50 [4] [µM] | Selectivity Index (SI = CC50/EC50) EFVR [4] | EC50 [5] [µM] | Selectivity Index (SI = CC50/EC50) AZTR [5] | EC50 [6] [µM] | Selectivity Index (SI = CC50/EC50) MDR [6] | EC50 [7] [µM] | Selectivity Index (SI = CC50/EC50) SAQR [7] | EC50 (HIV-2 CBL-20 strain; [11]) [µM] | Selectivity Index (SI = CC50/EC50) HIV-2 (HIV-2 CBL-20 strain) | IC50 [8] [µM] | Inhibition of recombinant HIV-1 RT [8] | further results
1 | Cc1ccc(S(=O)(=O)Nn2sc3ccccc3c2=O)cc1 [Compound 7, 4-Methyl-N-(3-oxo-1,2-benzisothiazol-2(3H)-yl)benzenesulfonamide] | 35 ± 1 | around 10 | 10 ± 3 | 3.5 | 5 ± 0.1 | 7 | 8 ± 1 | 4 | 8 ± 3 | 4 | 8 ± 1 | 4 | 6 ± 0.7 | 5 | 9 ± 2 | 3 | 4 ± 0.7 | 8 | > 30 | none of the benzenesulfonamides were active | IC50 [9]: > 30 µM; Inhibition of recombinant HIV-1 IN [9]: none of the benzenesulfonamides were active; IC50 [9, 12]: > 30 µM
2 | Cc1ccc2sn(NS(=O)(=O)c3ccccc3Cl)c(=O)c2c1 [Compound 17, 2-Chloro-N-(5-methyl-3-oxo-1,2-benzisothiazol-2(3H)-yl)benzenesulfonamide] | 73 ± 0.1 | around 10 | 2 ± 1 | 36 | 5 ± 0.7 | 14 | 9 ± 3 | 8 | 5 ± 2 | 14 | 4 ± 0.7 | 18 | 3 ± 0.5 | 23 | 6 ± 1 | 12 | 4 ± 0.5 | 18 |  |  | 
3 | O=c1c2ccc(Cl)cc2sn1NS(=O)(=O)c1ccccc1Cl [Compound 19, 2-Chloro-N-(6-chloro-3-oxo-1,2-benzisothiazol-2(3H)-yl)benzenesulfonamide] | 60 ± 4 | around 10 | 11 ± 3 | 5 | 14 ± 3 | 4 | ≥ 33 |  | 7 ± 2 | 8 | 14 ± 1 | 5 | 11 ± 2 | 5 | 21 ± 1 | 2 | 12 ± 2 | 5 | > 30 | none of the benzenesulfonamides were active | IC50 [9]: > 30 µM; Inhibition of recombinant HIV-1 IN [9]: none of the benzenesulfonamides were active; IC50 [9, 12]: > 30 µM
4 | O=C1Nc2ccc(Cl)cc2[C@@](C#CC2CC2)(C(F)(F)F)O1 [EFV, efavirenz, reference compound] |  |  | 0.002 ± 0.0003 |  | 0.008 ± 0.003 |  | 0.3 ± 0.009 |  | 3 ± 1 |  | 0.002 ± 0.0003 |  | 0.004 |  | 0.007 ± 0.005 |  | > 20 |  |  |  | CC50 at 4 days ([1]; MT-4, MTT method): 30 ± 5 µM; EC50 (HIV-1 IIIB strain; MT4, read-out: EC50 HIV-1 (Table 2)): 0.002 ± 0.0003 µM; EC50 (HIV-2 CBL-20 strain; Human immunodeficiency virus 2, C8166, read-out: EC50 HIV-2 (Table 2)): > 20 µM; Infectious virus yield when compound present only during the 1-h infection period (HIV-1 wt): infectious virus yield similar to that of the untreated infected controls; Time of addition p.i. up to which the compound still prevents virus yield (HIV-1 wt): ≤ 4 h
5 | dextran sulphate [reference compound] |  |  |  |  |  |  |  |  |  |  |  |  |  |  |  |  |  |  |  |  | Prevention of syncytia formation [10]: 98%
